Data set [1] can be described thus: toxicity.
Data set [2] can be described thus: stability on storage for a long time under usual conditions. Format: physicochemical.
Data set [3] has as its system β-amyloid protein. Briefly: action of inhibiting the production and secretion of β-amyloid protein.
A short description of data set [4]: transfer to the brain.

Structures can show the parent of a compound that is named as a salt.

Turning to `CN(C)CC[C@@H]1CCc2cc(OCc3ccc(-c4ccccc4)cc3)ccc2C1` [Compound (V′), (R)-(+)-6-(4-biphenylyl)methoxy-2-[2-(N,N-dimethylamino)ethyl]tetralin hydrochloride monohydrate], the toxicity result in data set [1] is on record as “low toxic”. The “stability (denaturation after storage)” value in data set [2] was “very excellent in stability”. The “action of inhibiting the production and secretion of β-amyloid protein” value in data set [3] is reported as “excellent”. In data set [4], the “transfer to the brain” value is given as “excellent in transfer to the brain”.
